From US11964953B2, “Substituted aminothiazoles as DGKzeta inhibitors for immune activation” (Bayer Aktiengesellschaft, priority 2020, dated 2024) come the findings set out here.

Chain of human DGKζ (Q13574 other isoform, or with tags, fused parts or gaps): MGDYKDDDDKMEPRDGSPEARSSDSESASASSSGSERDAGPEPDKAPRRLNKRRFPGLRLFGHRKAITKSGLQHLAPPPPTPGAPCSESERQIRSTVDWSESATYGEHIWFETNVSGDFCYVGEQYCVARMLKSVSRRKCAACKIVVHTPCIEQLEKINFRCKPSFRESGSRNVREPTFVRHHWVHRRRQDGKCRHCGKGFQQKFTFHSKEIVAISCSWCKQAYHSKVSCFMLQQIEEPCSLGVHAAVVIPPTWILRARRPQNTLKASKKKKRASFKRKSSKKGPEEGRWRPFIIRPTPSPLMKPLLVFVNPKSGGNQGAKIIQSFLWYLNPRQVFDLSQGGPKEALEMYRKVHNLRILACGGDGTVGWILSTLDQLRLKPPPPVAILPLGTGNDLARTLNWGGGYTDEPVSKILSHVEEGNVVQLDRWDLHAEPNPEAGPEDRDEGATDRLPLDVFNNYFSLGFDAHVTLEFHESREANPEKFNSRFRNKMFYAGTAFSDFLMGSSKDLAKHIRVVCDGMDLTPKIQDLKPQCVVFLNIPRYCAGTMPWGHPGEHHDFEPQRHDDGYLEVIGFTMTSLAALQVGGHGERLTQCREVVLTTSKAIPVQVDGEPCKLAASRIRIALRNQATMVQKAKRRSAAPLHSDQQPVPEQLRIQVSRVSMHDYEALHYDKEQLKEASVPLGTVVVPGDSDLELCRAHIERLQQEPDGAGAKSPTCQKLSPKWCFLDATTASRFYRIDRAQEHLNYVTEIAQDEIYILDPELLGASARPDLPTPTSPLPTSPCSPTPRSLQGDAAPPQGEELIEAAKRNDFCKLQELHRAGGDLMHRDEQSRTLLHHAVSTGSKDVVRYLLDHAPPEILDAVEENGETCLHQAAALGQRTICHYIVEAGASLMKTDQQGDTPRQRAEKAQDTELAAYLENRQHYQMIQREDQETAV

This assay deals with human DGKζ (Homo sapiens (Human), UniProt Q13574). Briefly: Human DGKζ kinase activity inhibition assay (ADP-Glo). Format: biochemical. The note with it: in vitro human DGKζ kinase activity inhibition assay; read-out: IC50. An outline of the steps:
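ADP-Glo luminescence, reflecting ADP produced, served as the readout of activity. Full-length human DGKζ, FLAG-tagged at the C-terminus and insect-cell expressed, was used; lipid substrate mix was sonicated with octyl-β-D-glucopyranoside in 50 mM MOPS pH 7.4.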
For orientation: ADP-Glo turns the ADP formed in a reaction into a luminescent signal.
What is called IC50 is the concentration needed to halve the response being measured. For `CC(C(N)=O)N(c1ccc(F)cc1)c1nc(N)c(C(=O)c2ccc(OCC(=O)NCC(O)CO)cc2)s1` (racemic) [Example 147, 2-(N-[4-amino-5-[4-[2-((2RS),3-dihydroxypropylamino)-2-oxo-ethoxy]benzoyl]thiazol-2-yl]-4-fluoro-anilino)propanamide], the IC50 came to 291 nM. As for `CC(C)NC(=O)C(C)(C)Oc1ccc(C(=O)c2sc(N(c3ccc(F)cc3)C(C)C(N)=O)nc2N)cc1` (racemic) [Example 154, rac-2-[4-[4-amino-2-(N-(2-amino-1-methyl-2-oxo-ethyl)-4-fluoro-anilino)thiazole-5-carbonyl]phenoxy]-N-isopropyl-2-methyl-propanamide], the figure is 55.6 nM; as for `CC(C(N)=O)N(c1ccc(F)cc1)c1nc(N)c(C(=O)c2ccc(OC(C)(C)C(N)=O)cc2)s1` (racemic) [Example 155, rac-2-[4-[4-amino-2-(N-(2-amino-1-methyl-2-oxo-ethyl)-4-fluoro-anilino)thiazole-5-carbonyl]phenoxy]-2-methyl-propanamide], 200 nM; as for `Cc1nc(N(c2ccc(F)cc2)C(C)C(N)=O)sc1C(=O)c1ccccc1` (racemic) [Example 156, rac-2-(N-(5-benzoyl-4-methyl-thiazol-2-yl)-4-fluoro-anilino)propanamide], 231 nM. As for `CC(C(N)=O)N(c1ccc(F)cc1)c1nc(N)c(C(=O)c2ccc(O)cc2)s1` (racemic) [Example 157, rac-2-(N-[4-amino-5-(4-hydroxybenzoyl)thiazol-2-yl]-4-fluoro-anilino)propanamide], the figure is 190 nM.

On to `CC(C(N)=O)N(c1ccc(F)cc1)c1nc(N)c(C(=O)c2ccc(OCc3ccccc3)cc2)s1` (racemic) [Example 158, rac-2-(N-[4-amino-5-(4-benzyloxybenzoyl)thiazol-2-yl]-4-fluoro-anilino)propanamide], for which the 50% inhibitory concentration (IC50) worked out at 6.71 nM.

For `CC(C(N)=O)N(c1ccc(F)cc1)c1nc(N)c(C(=O)c2ccc(C(F)F)nc2)s1` (racemic) [Example 159, rac-2-(N-[4-amino-5-[6-(difluoromethyl)pyridine-3-carbonyl]thiazol-2-yl]-4-fluoro-anilino)propanamide], the IC50 amounted to 214 nM.

In the case of `CC(C(N)=O)N(c1ccc(F)c(Cl)c1)c1nc(N)c(C(=O)c2ccncc2)s1` (racemic) [Example 160, rac-2-(N-[4-amino-5-(pyridine-4-carbonyl)thiazol-2-yl]-3-chloro-4-fluoro-anilino)propanamide], the IC50 stood at 187 nM. As for `COc1ccc(C(=O)c2sc(N(c3ccc(F)c(Cl)c3)C(C)C(N)=O)nc2N)cc1` (racemic) [Example 161, rac-2-(N-[4-amino-5-(4-methoxybenzoyl)thiazol-2-yl]-3-chloro-4-fluoro-anilino)propanamide], the figure is 15 nM; as for `CC(C(N)=O)N(c1ccc(F)cc1)c1nc(N)c(C(=O)c2ccc(OC(F)F)nc2)s1` (racemic) [Example 162, rac-2-(N-[4-amino-5-[6-(difluoromethoxy)pyridine-3-carbonyl]thiazol-2-yl]-4-fluoro-anilino)propanamide], 22 nM. As for `CC(C(N)=O)N(c1ccc(F)c(F)c1)c1nc(N)c(C(=O)c2ccc(OC(F)F)nc2)s1` (racemic) [Example 163, rac-2-(N-[4-amino-5-[6-(difluoromethoxy)pyridine-3-carbonyl]thiazol-2-yl]-3,4-difluoro-anilino)propanamide], the figure is 9 nM; as for `CC(C(N)=O)N(c1ccc(Cl)c(F)c1)c1nc(N)c(C(=O)c2ccc(OC(F)F)nc2)s1` (racemic) [Example 164, rac-2-(N-[4-amino-5-[6-(difluoromethoxy)pyridine-3-carbonyl]thiazol-2-yl]-4-chloro-3-fluoro-anilino)propanamide], 7 nM. As to `CC(C(N)=O)N(c1ccc(F)c(F)c1)c1nc(N)c(C(=O)c2ccc(OCc3ccccc3)cc2)s1` (racemic) [Example 165, rac-2-(N-[4-amino-5-(4-benzyloxybenzoyl)thiazol-2-yl]-3,4-difluoro-anilino)propanamide], the IC50 was 3 nM. As for `CC(C(N)=O)N(c1ccc(Cl)c(F)c1)c1nc(N)c(C(=O)c2ccc(OCc3ccccc3)cc2)s1` (racemic) [Example 166, rac-2-(N-[4-amino-5-(4-benzyloxybenzoyl)thiazol-2-yl]-4-chloro-3-fluoro-anilino)propanamide], the figure is 3 nM; as for `CC(C(N)=O)N(c1ccc(F)c(F)c1)c1nc(N)c(C(=O)c2ccc(NC(=O)OCc3ccccc3)cc2)s1` (racemic) [Example 167, rac-benzyl N-[4-[4-amino-2-(N-(2-amino-1-methyl-2-oxo-ethyl)-3,4-difluoro-anilino)thiazole-5-carbonyl]phenyl]carbamate], 2 nM. `CC(=O)OCCOc1ccc(C(=O)c2sc(N(c3ccc(F)cc3)C(C)C(N)=O)nc2N)cc1` (racemic) [Example 168, rac-2-[4-[4-amino-2-(N-(2-amino-1-methyl-2-oxo-ethyl)-4-fluoro-anilino)thiazole-5-carbonyl]phenoxy]ethyl acetate]: the IC50 turned out to be 19 nM.

As for `CC(C(N)=O)N(c1ccc(F)cc1)c1nc(N)c(C(=O)c2ccc(NC(=O)OCc3ccccc3)cc2)s1` (racemic) [Example 169, rac-benzyl N-[4-[4-amino-2-(N-(2-amino-1-methyl-2-oxo-ethyl)-4-fluoro-anilino)thiazole-5-carbonyl]phenyl]carbamate], the IC50 came out at 3 nM. In the case of `CC(C(N)=O)N(c1ccc(F)cc1)c1nc(N)c(C(=O)c2ccc(OCc3ccccc3)cc2)s1` (racemic) [Example 170, rac-2-(N-[4-amino-5-(4-benzyloxybenzoyl)thiazol-2-yl]-4-fluoro-anilino)propanamide], the IC50 worked out at 7 nM. The figure for `CC(C(N)=O)N(c1ccc(F)cc1)c1nc(N)c(C(=O)c2ccc(I)cc2)s1` (racemic) [Example 171, rac-2-(N-[4-amino-5-(4-iodobenzoyl)thiazol-2-yl]4-fluoro-anilino)propanamide] is 11 nM. For the compound `COc1ccc(C(=O)c2sc(N(c3ccc(Cl)c(F)c3)C(C)C(N)=O)nc2N)cn1` (racemic) [Example 172, rac-2-(N-[4-amino-5-(6-methoxypyridine-3-carbonyl)thiazol-2-yl]-4-chloro-3-fluoro-anilino)propanamide], the IC50 turned out to be 46 nM. For `CC(C(N)=O)N(c1ccc(F)cc1)c1nc(N)c(C(=O)c2ccc(Oc3ccccc3)cc2)s1` (racemic) [Example 173, rac-2-(N-[4-amino-5-(4-phenoxybenzoyl)thiazol-2-yl]-4-fluoro-anilino)propanamide], the IC50 turned out to be 25 nM. As for `COc1ccc(N(c2nc(N)c(C(=O)c3ccc(OC(F)F)cc3)s2)C(C)C(N)=O)cc1` (racemic) [Example 174, rac-2-(N-[4-amino-5-[4-(difluoromethoxy)benzoyl]thiazol-2-yl]-4-methoxy-anilino)propanamide], the figure is 51 nM; as for `CC(C(N)=O)N(c1ccc(F)cc1)c1nc(N)c(C(=O)c2ccc([N+](=O)[O-])cc2)s1` (racemic) [Example 175, rac-2-(N-[4-amino-5-(4-nitrobenzoyl)thiazol-2-yl]-4-fluoro-anilino)propanamide], 20 nM. As for `COc1ccc(C(=O)c2sc(N(c3ccc(F)cc3)C(C)C(N)=O)nc2C)cc1` (racemic) [Example 176, rac-2-(4-fluoro-N-[5-(4-methoxybenzoyl)-4-methyl-thiazol-2-yl]anilino)propanamide], the figure is 91 nM. As for `CC(C(N)=O)N(c1ccc(F)cc1)c1nc(N)c(C(=O)c2ccc(NC(=O)C3CC3)cc2)s1` (racemic) [Example 177, rac-4-[4-[4-amino-2-(N-(2-amino-1-methyl-2-oxo-ethyl)-4-fluoro-anilino)thiazole-5-carbonyl]phenyl]cyclopropanecarboxamide], the figure is 40 nM; as for `CC(C(N)=O)N(c1ccc(F)cc1)c1nc(N)c(C(=O)c2ccc(N3CCOCC3)cc2)s1` (racemic) [Example 178, rac-2-(N-[4-amino-5-(4-morpholinobenzoyl)thiazol-2-yl]-4-fluoro-anilino)propanamide], 48 nM; as for `CC(C(N)=O)N(c1ccc(F)cc1)c1nc(N)c(C(=O)c2ccc(Cn3cccn3)cc2)s1` (racemic) [Example 179, rac-2-(N-[4-amino-5-[4-(pyrazol-1-ylmethyl)benzoyl]thiazol-2-yl]-4-fluoro-anilino)propanamide], 57 nM. For the compound `CC(C(N)=O)N(c1ccc(F)cc1)c1nc(N)c(C(=O)c2ccc(N(C)C)cc2)s1` (racemic) [Example 180, rac-2-(N-[4-amino-5-[4-(dimethylamino)benzoyl]thiazol-2-yl]-4-fluoro-anilino)propanamide], the IC50 amounted to 62 nM. The figure for `CC(C(N)=O)N(c1ccc(F)cc1)c1nc(N)c(C(=O)c2ccc(N3CCCC3)cc2)s1` (racemic) [Example 181, rac-2-(N-[4-amino-5-(4-pyrrolidin-1-ylbenzoyl)thiazol-2-yl]-4-fluoro-anilino)propanamide] is 65 nM; for `CC(C(N)=O)N(c1ccc(OCc2ccccc2)cc1)c1nc(N)c(C(=O)c2ccc(OC(F)F)cc2)s1` (racemic) [Example 182, rac-2-(N-[4-amino-5-[4-(difluoromethoxy)benzoyl]thiazol-2-yl]-4-benzyloxy-anilino)propanamide] it is 91 nM; for `CC(C(N)=O)N(c1ccc(F)cc1)c1nc(N)c(C(=O)c2cccc(OC(F)F)c2)s1` (racemic) [Example 183, rac-2-(N-[4-amino-5-[3-(difluoromethoxy)benzoyl]thiazol-2-yl]-4-fluoro-anilino)propanamide] it is 222 nM. The figure for `CC(C(N)=O)N(c1ccc(F)c(F)c1)c1nc(N)c(C(=O)c2cccnc2)s1` (racemic) [Example 184, rac-2-(N-[4-amino-5-(pyridine-3-carbonyl)thiazol-2-yl]-3,4-difluoro-anilino)propanamide] is 428 nM.
